How the values were obtained:
DAT (h) = target: T1, DAT (h) (Homo sapiens, UniProt Q01959); test: Radioligand binding, DAT (h); conditions: 10^−5 M; antagonist radioligand
T1 construct: Eurofins
Description: (§1) Melafenoxate was tested at 10^−5 M, calculated as a % inhibition of control specific binding of a radioactively labeled ligand specific for each target.
(§2) This binding profile panel was broadly defined with roughly an equal number of selective, central and peripheral therapeutically relevant targets, including native animal tissues, radioligands and specific enzymes involved in cell cycle regulation in accordance with Eurofins Standard Operating Procedure.
(§3) For radioligand binding experiments, the half maximal inhibitory concentration (IC50) and the half maximal effective concentration (EC50) values were determined (via computer software) by nonlinear regression analysis of the competition curves using Hill equation curve fitting. The inhibition constants (Ki) were calculated using the Cheng-Prusoff equation (Ki=IC50/(1+(L/KD)), where L is the concentration of radioligand in the assay, and KD is the affinity of the radioligand for the receptor.^49
(§4) The results are expressed as a % control specific binding ([measured specific binding/control specific binding]×100) and as a % inhibition of control specific binding (100−[(measured specific binding/control specific binding)×100]) obtained in the presence of the test compounds. […]

NET (h) = target: T2, NET (h) (Homo sapiens, UniProt P23975); test: Radioligand binding, NET (h); conditions: 10^−5 M; antagonist radioligand
T2 construct: Eurofins
T2 sequence (P23975 whole entry): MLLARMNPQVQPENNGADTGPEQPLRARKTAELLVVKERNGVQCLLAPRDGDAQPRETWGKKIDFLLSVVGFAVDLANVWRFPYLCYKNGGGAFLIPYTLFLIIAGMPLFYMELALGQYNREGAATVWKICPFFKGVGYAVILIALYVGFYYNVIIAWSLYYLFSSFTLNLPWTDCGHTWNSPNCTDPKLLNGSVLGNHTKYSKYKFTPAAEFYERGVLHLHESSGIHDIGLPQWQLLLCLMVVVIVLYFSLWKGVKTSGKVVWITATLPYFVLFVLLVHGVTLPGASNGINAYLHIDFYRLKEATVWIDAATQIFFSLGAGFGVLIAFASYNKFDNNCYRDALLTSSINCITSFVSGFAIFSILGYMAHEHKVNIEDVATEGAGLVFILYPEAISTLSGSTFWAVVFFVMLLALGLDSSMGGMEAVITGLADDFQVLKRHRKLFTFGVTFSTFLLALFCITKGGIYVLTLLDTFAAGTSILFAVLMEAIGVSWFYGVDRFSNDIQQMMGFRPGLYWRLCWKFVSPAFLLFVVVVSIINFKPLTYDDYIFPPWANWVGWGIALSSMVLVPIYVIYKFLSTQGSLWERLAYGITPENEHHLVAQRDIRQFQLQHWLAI
Description: as §1, §2, §3, §4

5-HT7 (h) = target: T3, 5-HT7 (h) (Homo sapiens, UniProt P34969); test: Radioligand binding, 5-HT7 (h); conditions: 10^−5 M; agonist radioligand
T3 construct: CEREP (Eurofins, France)
T3 sequence (P34969 whole entry): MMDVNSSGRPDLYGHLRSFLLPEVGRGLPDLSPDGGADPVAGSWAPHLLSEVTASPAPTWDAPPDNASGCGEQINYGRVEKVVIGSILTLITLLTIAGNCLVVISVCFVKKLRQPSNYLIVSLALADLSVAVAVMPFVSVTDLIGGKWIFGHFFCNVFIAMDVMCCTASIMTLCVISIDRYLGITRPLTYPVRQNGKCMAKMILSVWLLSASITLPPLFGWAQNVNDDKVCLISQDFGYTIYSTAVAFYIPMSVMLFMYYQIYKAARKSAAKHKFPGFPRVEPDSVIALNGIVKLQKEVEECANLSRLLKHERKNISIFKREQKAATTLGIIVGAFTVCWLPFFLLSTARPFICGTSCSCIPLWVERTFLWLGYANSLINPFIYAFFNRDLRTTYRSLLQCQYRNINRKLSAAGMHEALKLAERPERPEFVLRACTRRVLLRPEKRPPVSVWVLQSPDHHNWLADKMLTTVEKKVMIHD
Description: as §1, §2, §3, §4

T1 sequence (Q01959 whole entry): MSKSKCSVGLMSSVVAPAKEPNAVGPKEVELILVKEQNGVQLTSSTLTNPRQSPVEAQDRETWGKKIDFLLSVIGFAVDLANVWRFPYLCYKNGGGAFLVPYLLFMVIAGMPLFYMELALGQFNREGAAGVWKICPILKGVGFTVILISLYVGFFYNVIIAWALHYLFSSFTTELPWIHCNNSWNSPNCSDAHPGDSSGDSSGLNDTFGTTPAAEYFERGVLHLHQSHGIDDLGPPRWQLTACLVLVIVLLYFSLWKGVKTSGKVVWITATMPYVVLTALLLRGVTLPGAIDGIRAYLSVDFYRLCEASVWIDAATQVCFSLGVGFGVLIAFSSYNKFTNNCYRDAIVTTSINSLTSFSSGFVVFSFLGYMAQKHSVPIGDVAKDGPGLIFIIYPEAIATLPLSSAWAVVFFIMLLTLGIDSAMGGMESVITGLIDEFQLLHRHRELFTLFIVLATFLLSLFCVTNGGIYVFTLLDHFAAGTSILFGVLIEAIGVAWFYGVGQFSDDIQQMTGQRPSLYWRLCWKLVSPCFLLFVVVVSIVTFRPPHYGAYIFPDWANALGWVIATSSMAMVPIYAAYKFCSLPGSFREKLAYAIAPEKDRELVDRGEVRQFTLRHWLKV

inhibition at 10 µM (DAT (h)): 20.9%
inhibition at 10 µM (NET (h)): 16.5%
inhibition at 10 µM (5-HT7 (h)): 12.8%
SMILES: O=C(COc1ccc(Cl)cc1)OCCNC12CC3CC(CC(C3)C1)C2 [Melafenoxate, 2-(1-adamantylamino)ethyl 2-(4-chlorophenoxy)acetate]

— patent US20250082598A1, “Melafenoxate, 2-(1-adamantylamino)ethyl 2-(4-chlorophenoxy)acetate and derivatives thereof for treating circadian rhythm sleep disorders with neurodegenerative diseases such as Alzheimer's disease” (NLS Pharmaceutics AG, priority 2021, published 2025)
